Measurements taken from article PMC12679539, “Synthesis and evaluation of nitroheterocyclic aromatic adamantane amides with trypanocidal activity. Part II” (RSC Medicinal Chemistry, 2025).

What was measured:
[1] = system: L. infantum promastigotes; assay: Activity against Leishmania infantum promastigotes (resazurin assay); format: cell-based, Leishmania infantum (MHOM/MA/67/ITMAP-263); conditions: for IC50: Leishmania infantum, promastigotes, 72 h, 95% CI in brackets
Experimental: Promastigotes from the L. infantum strain (MHOM/MA/67/ITMAP-263) were cultivated in 5 ml of Schneider's insect medium, which was supplemented with 10% heat-inactivated fetal bovine serum (FBS), 200 U ml^−1 of penicillin/streptomycin, 6 μg ml^−1 of phenol red, and 5 mM of HEPES. The cultures were maintained in an incubator at 27 °C and diluted to a concentration of 2 × 10^5 cells per ml every 5 days. For the assays the parasites used were equivalent to late/log with two or three days of culture.
The efficacy of the compounds against L. infantum promastigotes was evaluated using a resazurin-based assay. Parasites were added to 100 μl of serial dilutions of the compounds in supplemented complete medium at a cell density of 5 × 10^5 ml^−1. As a quality control, a dose–response curve with the antileishmanial drug miltefosine was included in all assays. The final volume of each assay was 200 μl per well, and each condition was tested in duplicate. After a 72-hour incubation under specific conditions for each parasite, 20 μl of a 0.5 mM resazurin solution was added, and the plates were incubated for an additional 4 hours under the same conditions. Fluorescence was measured at 544 nm for excitation and 590 nm for emission using a Synergy 2 Multi-Mode Reader (Biotek, Winooski, VT, USA). Results were expressed as the percentage of parasite growth inhibition compared to controls (untreated parasites) and represent the average of at least three independent experiments. The effect was evaluated by determining the IC50 value (the concentration required to inhibit 50% growth), calculated using non-linear regression curves via GraphPad Prism version 8.1.1 for Windows (GraphPad Software, San Diego, CA, USA).

[2] = system: T. cruzi intracellular amastigotes; assay: microbe, parasite or virus in culture; format: cell-based, Trypanosoma cruzi CL Brener PpyRE9h:mScarlet; conditions: Trypanosoma cruzi, 120 h; in HeLa cells, 5 days
Experimental: Assays were performed in 96-well black (clear bottom) microtitre plates (Corning Inc.). HeLa ^† cells were seeded at 10^4 per well, incubated for 3 days, and then infected with T. cruzi CL Brener PpyRE9h : mScarlet[25] culture form trypomastigotes (1 : 1 multiplicity of infection). After 16 hours, extracellular parasites were removed by washing in growth medium (×3), test compounds were added, and the plates incubated for 5 days. Fluorescence intensities were then determined using a BMG FLUOstar Omega plate reader (ex 545 nm, em 590 nm), and the data analysed using GraphPad Prism 9.0 software. The values were expressed as IC50/90 ± SD and are the mean of triplicate experiments.

Row | SMILES | IC50 [1] [µM] | IC50 [2] [nM] | IC90 [2] [nM] | SI (promastigotes) CC50/Li IC50 ([1]; THP-1 CC50 / L. infantum promastigote IC50)
1 | O=C(Cc1ccc(C23CC4CC(CC(C4)C2)C3)cc1)NCCn1cnc([N+](=O)[O-])n1 [6b, 2-[4-(1-Adamantyl)phenyl]-N-[2-(3-nitro-1H-1,2,4-triazol-1-yl)ethyl]acetamide] | 0.49 | 1830 ± 700 | 4290 ± 310 | 
2 | O=C(Cc1ccc(C23CC4CC(CC(C4)C2)C3)cc1)NCCCn1cnc([N+](=O)[O-])n1 [6e, 2-[4-(1-Adamantyl)phenyl]-N-[3-(3-nitro-1H-1,2,4-triazol-1-yl)propyl]acetamide] | 0.31 | 2480 ± 310 | 7080 ± 470 | 
3 | O=C(CCc1ccc(C23CC4CC(CC(C4)C2)C3)cc1)NCCn1cnc([N+](=O)[O-])n1 [6c, 3-[4-(1-Adamantyl)phenyl]-N-[2-(3-nitro-1H-1,2,4-triazol-1-yl)ethyl]propanamide] | 0.42 | 1580 ± 70 | 3230 ± 850 | SI > 238
